# Laboratory results reported in US9181234B2, “Antibacterial compounds” (priority 2010, dated 2015).
# Experiments:
# physchem = conditions: kinetic from dmso stock
# Method: Turbimetric Assay: Determination of Solubility
# The solubility of the compounds was measured using a turbidimetric method. A series of doubling dilutions of compounds were prepared in neat dimethyl sulfoxide (DMSO). 5 μl samples were diluted twenty-fold into 95 μl volumes of 100 mM citrate buffer (pH 4), phosphate buffered saline (PBS, pH 7.4) or carbonate-bicarbonate buffer (pH 9) in microtitre assay plates and allowed to reach equilibrium at room temperature for 24 hours. The absorbance within each well of the plate was read spectrophotometrically at a wavelength of 620 nm. A precipitate forms when the maximum aqueous solubility level is reached. The value quoted is the highest concentration where the compound was in solution i.e. where no measurable precipitate was present. […] ND=not determined
# [1] = test system: Staphylococcus aureus (Isolate ID ATCC 29213); assay: Antibacterial activity, MIC, S. aureus; type: cell-based; conditions: broth microdilution or agar dilution; for MIC: Staphylococcus aureus, ATCC29213, Gram positive strain; for Antibacterial Activity (MIC) S. aureus (ATCC 29213): Gram positive strain
# Method: (§1) Bacterial Assay: Determination of Antibacterial Activity
# (§2) Compounds of the invention were tested for antimicrobial activity by susceptibility testing in liquid or on solid media. MICs for compounds against each strain were determined by the broth microdilution or agar dilution method according to the guidelines of the Clinical Laboratories and Standards Institute, formerly the National Committee for Clinical Laboratory Standards (Clinical Laboratories and Standards Institute. Methods for Dilution Antimicrobial Susceptibility Tests for Bacteria That Grow Aerobically; Approved Standard—Seventh Edition. Document M7-A7. CLSI, Wayne, Pa., 2006; Clinical Laboratories and Standards Institute. The gram positive bacterial strains tested include S. aureus (Staphylococcus aureus (Isolate ID ATCC 29213)), E. faecalis (Enterococcus faecalis (Isolate ID ATCC 29212)) and S. pyogenes (Streptococcus pyogenes (Isolate ID ATCC 51339)). The gram negative bacterial strains tested include H. influenzae (Haemophilus influenzae (Isolate ID ATCC 49247))
# [2] = test system: Streptococcus pyogenes (Isolate ID ATCC 51339); assay: Antibacterial activity, MIC, S. pyogenes; type: cell-based; conditions: broth microdilution or agar dilution; for MIC: Streptococcus pyogenes, ATCC51339, Gram positive strain; for Antibacterial Activity (MIC) S. pyogenes (ATCC 51339): Gram positive strain
# Method: as §1, §2
# [3] = test system: Haemophilus influenzae (Isolate ID ATCC 49247); assay: Antibacterial activity, MIC, H. influenzae; type: cell-based; conditions: Gram negative strain, broth microdilution or agar dilution; for MIC: Haemophilus influenzae, ATCC49247
# Method: as §1, §2
# [4] = pH 7.4, aqueous buffer, Max Solubility
# [5] = pH 7.4, aqueous buffer, Solubility (pH 7.4)
# [6] = pH 7.4, aqueous buffer, Solubility Range
# [7] = pH 7.4, aqueous buffer, Solubility Range (maximum solubility)
# [8] = pH 9, aqueous buffer, Max Solubility
# [9] = pH 9, aqueous buffer, Solubility Range (maximum solubility)
Compound,solubility at 24 h (physchem; [4]) [µg/mL],solubility at 24 h (physchem; [5]) [µg/mL],solubility at 24 h (physchem; [6]) [µg/mL],solubility at 24 h (physchem; [7]) [µg/mL],MIC [1] [µg/mL],MIC [2] [µg/mL],MIC [3] [µg/mL],solubility at 24 h (physchem; [8]) [µg/mL],solubility at 24 h (physchem; [9]) [µg/mL],Antibacterial Activity (MIC) S. aureus (ATCC 29213) [1],Antibacterial Activity (MIC) S. pyogenes (ATCC 51339) [2],Antibacterial Activity (MIC) H. influenzae (ATCC 49247) [3]
CCNC(=O)Nc1nc2cc(-c3cnc(N4CCC(C)(C(=O)O)CC4)nc3)cc(-c3ncc(C)cc3F)c2s1 [Compound 93],≥ 800,≥ 800,> 800,> 800,≤ 0.25,≤ 0.25,1 to 16,–,–,–,–,–
CCNC(=O)Nc1nc2cc(-c3cnc(N4CCC(C)(C(=O)O)CC4)nc3)cc(/C(C)=N/OCC(F)(F)F)c2s1 [Compound 94],≥ 800,≥ 800,> 800,> 800,1 to 16,1 to 16,> 16,–,–,–,–,–
CCNC(=O)Nc1nc2cc(-c3cnc(N4CCC(C)(C(=O)O)CC4)nc3)cc(/C(C)=N/O)c2s1 [Compound 95],≥ 800,≥ 800,> 800,> 800,1 to 16,0.25 to 1,> 16,–,–,–,–,–
CCNC(=O)Nc1nc2cc(-c3cnc(N4CCC(C)(C(=O)O)CC4)nc3)cc(/C(C)=N/OCC)c2s1 [Compound 96],≥ 800,≥ 800,> 800,> 800,≤ 0.25,0.25 to 1,1 to 16,–,–,–,–,–
"CCNC(=O)Nc1nc2cc(-c3cnc(N4CCC(C)(C(=O)O)CC4)nc3)cc(C(=O)NCC)c2s1 [Compound 97, 1-[5-[7-(Ethylcarbamoyl)-2-(ethylcarbamoylamino)-1,3-benzothiazol-5-yl]pyrimidin-2-yl]-4-methyl-piperidine-4-carboxylic acid]",≥ 800,≥ 800,> 800,> 800,> 16,1 to 16,> 16,–,–,–,–,–
"CCNC(=O)Nc1nc2cc(-c3cnc(N4CCC(CC)(C(=O)O)CC4)nc3)cc(/C(C)=N/OC)c2s1 [Compound 116, 4-ethyl-1-[5-[2-(ethylcarbamoylamino)-7-[(E)-N-methoxy-C-methyl-carbonimidoyl]-1,3-benzothiazol-5-yl]pyrimidin-2-yl]piperidine-4-carboxylic acid]",≥ 800,≥ 800,> 800,> 800,≤ 0.25,≤ 0.25,1 to 16,–,–,–,–,–
"CCNC(=O)Nc1nc2cc(-c3cnc(N4CCC(C)(C(=O)O)CC4)nc3)cc(CN3CCOCC3)c2s1 [Compound 158, 1-[5-[2-(ethylcarbamoylamino)-7-(morpholinomethyl)-1,3-benzothiazol-5-yl]pyrimidin-2-yl]-4-methyl-piperidine-4-carboxylic acid]",≥ 800,≥ 800,> 800,> 800,1 to 16,1 to 16,> 16,–,–,–,–,–
"CCNC(=O)Nc1nc2cc(-c3cnc(N4CCC(C)(C(=O)O)CC4)nc3)cc(C(=O)N3CCOCC3)c2s1 [Compound 159, 1-[5-[2-(ethylcarbamoylamino)-7-(morpholine-4-carbonyl)-1,3-benzothiazol-5-yl]pyrimidin-2-yl]-4-methyl-piperidine-4-carboxylic acid]",400,400,400 to 800,400 to 800,> 16,> 16,> 16,–,–,–,–,–
"CCNC(=O)Nc1nc2cc(-c3cnc(N4CCC(C)(C(=O)O)CC4)nc3)nc(-c3ccccn3)c2s1 [Compound 162, 1-[5-[2-(ethylcarbamoylamino)-4-(2-pyridyl)thiazolo[5,4-c]pyridin-6-yl]pyrimidin-2-yl]-4-methyl-piperidine-4-carboxylic acid]",–,200,12.5 to 400,–,≤ 0.25,≤ 0.25,1 to 16,400,400 to 800,–,–,–
CCNC(=O)Nc1nc2cc(-c3cnc(N4CCCC(C)(C(=O)O)CC4)nc3)cc(-c3ccccn3)c2s1 (stereo not drawn) [Compound 166],≥ 800,≥ 800,> 800,> 800,≤ 0.25,≤ 0.25,1 to 16,–,–,–,–,–
CCNC(=O)Nc1nc2cc(-c3ccnc(N4CCC(C)(C(=O)O)CC4)c3)cc(-c3ccccn3)c2s1 [Compound 182],–,200,12.5 to 400,–,1 to 16,≤ 0.25,> 16,≥ 800,> 800,–,–,–
CCNC(=O)Nc1nc2cc(-c3cnc(N4CCC(C)(C(=O)NS(C)(=O)=O)CC4)nc3)cc(-c3ccccn3)c2s1 [Compound 186],≥ 800,≥ 800,> 800,> 800,1 to 16,≤ 0.25,1 to 16,–,–,–,–,–
CCNC(=O)Nc1nc2cc(-c3cnc(N4CCC(C)(C(=O)O)CC4)nc3)cc(/C(C)=N/OCCO)c2s1 [Compound 187],–,≥ 800,> 800,–,1 to 16,0.25 to 1,1 to 16,≥ 800,> 800,–,–,–
CCNC(=O)Nc1nc2cc(-c3cnc(N4CCC(C)(C(=O)O)CC4)nc3)cc(/C(C)=N/OCCOC)c2s1 [Compound 188],≥ 800,≥ 800,> 800,> 800,1 to 16,1 to 16,> 16,–,–,–,–,–
"CCNC(=O)Nc1nc2cc(-c3cnc(N4CCC(CC)(C(=O)O)CC4)nc3)cc(/C=N/OC)c2s1 [Compound 189, 4-Ethyl-1-[5-[2-(ethylcarbamoylamino)-7-[(E)-methoximinomethl]-1,3-benzothiazol-5-yl]pyrimidin-2-yl]piperidine-4-carboxylic acid]",–,–,–,–,–,–,–,–,–,A (“A” activity ≦0.25 μg/mL),A (“A” activity ≦0.25 μg/mL),C (“C” activity >1.0 μg/mL-16 μg/mL)
"CCNC(=O)Nc1nc2cc(-c3cnc4c(c3)OC(C)(C(=O)O)C(=O)N4)cc(-c3ccccn3)c2s1 (stereo not drawn) [Compound 190, 7-[2-(ethylcarbamoylamino)-7-(2-pyridyl)-1,3-benzothiazol-5-yl]-2-methyl-3-oxo-4H-pyrido[3,2-b][1,4]oxazine-2-carboxylic acid]",400,400,400 to 800,400 to 800,0.25 to 1,0.25 to 1,> 16,–,–,–,–,–
"CCNC(=O)Nc1nc2cc(-c3cnc(N4CCC(C)(C(=O)OCC)CC4)nc3)c(OC)cc2s1 [Compound 191, Ethyl 1-[5-[2-(ethylcarbamoylamino)-6-methoxy-1,3-benzothiazol-5-yl]pyrimidin-2-yl]-4-methyl-piperidine-4-carboxylate]",6.25,6.25,< 12.5,< 12.5,1 to 16,1 to 16,1 to 16,–,–,–,–,–
"CCNC(=O)Nc1cn2c(-n3cccn3)cc(-c3cnc(N4CCC(CC)(C(=O)O)CC4)nc3)cc2n1 [Compound 230, 4-ethyl-1-[5-[2-(ethylcarbamoylamino)-5-pyrazol-1-yl-imidazo[1,2-a]pyridin-7-yl]pyrimidin-2-yl]piperidine-4-carboxylic acid]",–,–,–,–,1 to 16,1 to 16,> 16,–,–,–,–,–
"CCNC(=O)Nc1cn2c(-n3cccn3)cc(-c3cnc(N4CCC(C)(C(=O)O)CC4)nc3)cc2n1 [Compound 231, 1-[5-[2-(ethylcarbamoylamino)-5-pyrazol-1-yl-imidazo[1,2-a]pyridin-7-yl]pyrimidin-2-yl]-4-methyl-piperidine-4-carboxylic acid]",–,–,–,–,> 16,1 to 16,–,–,–,–,–,–
"CCNC(=O)Nc1nc2cc(-c3nc(N4CCC(C)(C(=O)O)CC4)ns3)cc(-c3ccccn3)c2s1 [Compound 233, 1-(5-{2-[(ethylcarbamoyl)amino]-7-(pyridin-2-yl)-1,3-benzothiazol-5-yl}-1,2,4-thiadiazol-3-yl)-4-methylpiperidine-4-carboxylic acid]",–,–,–,–,–,–,–,–,–,B (“B” activity >0.25 μg/mL-1.0 μg/mL),B (“B” activity >0.25 μg/mL-1.0 μg/mL),D (“D” activity >16 μg/mL)
